# Read-outs that look alike come from different tables or passages of the source.
# Experiments:
# [1] = system: Key Grass and Sedge Weeds as well as Grass Crops; assay: Post-emergent Test II herbicidal activity (Table 6); type: in vivo; conditions: post-emergence, 336 h; for pest or weed control at 70 g/ha: application rate 70 g ai/ha; for pest or weed control at 140 g/ha: application rate 140 g ai/ha
# In short: (§1)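 Plants grown in Metro-Mix 360 (pH 6.0–6.8) in a greenhouse (~15 h photoperiod, 23–29 °C day) to first or second true leaf stage, then sprayed with compound in acetone/DMSO/aqueous crop-oil-surfactant carrier at 187 L/ha by track sprayer. Injury visually scored 0–100% versus untreated plants after 14 d.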
# [2] = system: Key Broadleaf Weed and Crop Species; assay: Post-emergent Test II herbicidal activity (Table 5); type: in vivo; conditions: post-emergence, 336 h, post-emergent, 14 days after application; for pest or weed control at 70 g/ha: 70 g ai/ha; for pest or weed control at 140 g/ha: 140 g ai/ha
# In short: as §1
# [3] = CYPES: yellow nutsedge (Cyperus esculentus), read-out: Visual Growth Reduction (%) 14 Days After Application, CYPES
# [4] = DIGSA: crabgrass (Digitaria sanguinalis), read-out: Visual Growth Reduction (%) 14 Days After Application, DIGSA
# [5] = ECHCG: barnyardgrass (Echinochloa crus-galli), read-out: Visual Growth Reduction (%) 14 Days After Application, ECHCG
# [6] = ORYSA: rice (Oryza sativa), read-out: Visual Growth Reduction (%) 14 Days After Application, ORYSA
# [7] = SETFA: giant foxtail (Setaria faberi), read-out: Visual Growth Reduction (%) 14 Days After Application, SETFA
# [8] = SORVU: grain sorghum (Sorghum vulgare), read-out: Visual Growth Reduction (%) 14 Days After Application, SORVU
# [9] = TRZSS (wheat, Triticum aestivum), read-out: Visual Growth Reduction (%) 14 Days After Application, TRZSS
# [10] = ZEAMX: maize, corn (Zea mays), read-out: Visual Growth Reduction (%) 14 Days After Application, ZEAMX
# [11] = ABUTH: velvetleaf (Abutilon theophrasti), read-out: Visual Growth Reduction (%) 14 Days After Application ABUTH
# [12] = AMARE: redroot pigweed (Amaranthus retroflexus), read-out: Visual Growth Reduction (%) 14 Days After Application AMARE
# [13] = BRSNN: oilseed-rape, canola (Brassica napus), read-out: Visual Growth Reduction (%) 14 Days After Application BRSNN
# [14] = CHEAL: lambsquarters (Chenopodium album), read-out: Visual Growth Reduction (%) 14 Days After Application CHEAL
# [15] = EPHHL: wild poinsettia (Euphorbia heterophylla), read-out: Visual Growth Reduction (%) 14 Days After Application EPHHL
# [16] = HELAN: sunflower (Helianthus annuus), read-out: Visual Growth Reduction (%) 14 Days After Application HELAN
# [17] = VIOTR: wild pansy (Viola tricolor), read-out: Visual Growth Reduction (%) 14 Days After Application VIOTR
structure (smiles),measurement,setting,value
Nc1cc(-c2c(F)cc(I)c(F)c2F)nc(C(=O)O)c1Cl [Compound 68],pest or weed control at 70 g/ha,[1]; [3],95 to 100%
same,pest or weed control at 140 g/ha,[1]; [3],95 to 100%
same,pest or weed control at 70 g/ha,[1]; [4],75 to 84%
same,pest or weed control at 140 g/ha,[1]; [4],75 to 84%
same,pest or weed control at 70 g/ha,[1]; [5],85 to 94%
same,pest or weed control at 140 g/ha,[1]; [5],75 to 84%
same,pest or weed control at 70 g/ha,[1]; [6],45 to 59%
same,pest or weed control at 140 g/ha,[1]; [6],45 to 59%
same,pest or weed control at 70 g/ha,[1]; [7],85 to 94%
same,pest or weed control at 140 g/ha,[1]; [7],75 to 84%
same,pest or weed control at 70 g/ha,[1]; [8],95 to 100%
same,pest or weed control at 140 g/ha,[1]; [8],95 to 100%
same,pest or weed control at 70 g/ha,[1]; [9],30 to 44%
same,pest or weed control at 140 g/ha,[1]; [9],45 to 59%
same,pest or weed control at 70 g/ha,[1]; [10],0 to 29%
same,pest or weed control at 140 g/ha,[1]; [10],75 to 84%
same,melting point,,170.1 to 172.6 °C
same,pest or weed control at 70 g/ha,[2]; [11],85 to 94%
same,pest or weed control at 140 g/ha,[2]; [11],85 to 94%
same,pest or weed control at 70 g/ha,[2]; [12],95 to 100%
same,pest or weed control at 140 g/ha,[2]; [12],95 to 100%
same,pest or weed control at 70 g/ha,[2]; [13],95 to 100%
same,pest or weed control at 140 g/ha,[2]; [13],95 to 100%
same,pest or weed control at 70 g/ha,[2]; [14],95 to 100%
same,pest or weed control at 140 g/ha,[2]; [14],95 to 100%
same,pest or weed control at 70 g/ha,[2]; [15],95 to 100%
same,pest or weed control at 140 g/ha,[2]; [15],95 to 100%
same,pest or weed control at 70 g/ha,[2]; [16],60 to 74%
same,pest or weed control at 140 g/ha,[2]; [16],0 to 29%
same,pest or weed control at 70 g/ha,[2]; [17],95 to 100%
same,pest or weed control at 140 g/ha,[2]; [17],95 to 100%

# — patent US9113629B2, “4-amino-6-(4-substituted-phenyl)-picolinates and 6-amino-2-(4-substituted-phenyl)-pyrimidine-4-carboxylates and their use as herbicides” (DOW AGROSCIENCES LLC, priority 2013, dated 2015)
